Measured values from patent US20260193571A1, “AQUEOUS COMPOSITION CONTAINING CUCURBITURILS” (Clariant International Ltd, priority 2022, published 2026).
≈ marks a conversion by molar mass, not a printed value.

Columns and labels:
[1] = Increasing the solubility of cucurbiturils in water: appearance of aqueous compositions comprising cucurbiturils; type: physicochemical; settings: 0.2 percent by weight cucurbituril sample, 25° C.
Method: Compositions consisting of the cucurbituril sample and water and compositions consisting of the cucurbituril sample, other substances but no solubilizing agents according to component Z2) of the inventive aqueous compositions, and water were prepared and used as comparative compositions.

[2] = in water at room temperature (25° C.); cited from earlier work
[3] = Malodor removing effect: headspace GC-MS measurement of odorants; settings: headspace 60° C. 30 min, no agent/no cucurbiturils = 100
Method: An artificial malodor composition was prepared by mixing 10 mg of 2,3-butanedione, 5 mg of octanal, 30 mg of isovaleraldehyde, 300 mg of isovaleric acid and 50 mg of hexanal in 1 L of water.
The cucurbituril sample contains cucurbit[6]uril (50% by weight), cucurbit[7]uril (35% by weight) and cucurbit[8]uril (10% by weight).
Aqueous cucurbituril composition B: 0.5% by weight of the cucurbituril sample was mixed in water.
1 mL of aqueous cucurbituril composition A or B, 1 mL of malodor composition and 3 mL of water were mixed.
1 mL of 5% by weight of solubilizing agent in water, 1 mL of malodor composition and 3 mL of water were mixed.
4 mL of water and 1 mL of malodor composition were mixed.
The mixtures were prepared in headspace vials. The vials were then closed tightly and analyzed.
Analytical evaluation of malodor in the vials was conducted through a headspace measurement. A Gas Chromatograph Agilent 9000 Intuvo equipped with an autosampler Agilent 7697A equipped with a headspace extracting syringe, a Mass Detector Agilent MSD 5977B was used.
The headspace vials were equilibrated at 60° C. for 30 min at the autosampler before the measurement. A gas phase sample of 1000 μL was extracted from the vial and injected into the GC column. • Carrier gas: Helium 22.7 psi, split 5:1 • Column: DB-624 UI (length 60m, diameter 250 μm, size of film 1.4 μm) • Oven: Initial 40° C.—Hold time 2 mb—Rate 20° C./min—Temperature 260° C. —Hold time 5 min • Mass detector parameter: run in select ion mode. The peak area of each odorant was then integrated and recorded.

[4] = substance at 10 percent by weight in water
[5] = substance at 5 percent by weight in water
[6] = mixture contains cucurbiturils: 1 mL composition A (5% agent + 0.5% cucurbituril sample) or B (0.5% sample only) + 1 mL malodor composition + 3 mL water
[7] = mixture without cucurbiturils: 1 mL of 5% by weight solubilizing agent + 1 mL malodor composition + 3 mL water

Compound: [Ca+2].[Cl-].[Cl-] [CaCl2]
- Appearance [1, 4]: very turbid

Compound: CCO [Ethanol]
- Appearance [1, 4]: very turbid

Compound: CC(O)CO (stereo not shown) [Propylene glycol]
- Appearance [1, 4]: very turbid

Compound: O=C1N2CN3C(=O)N4CN5C(=O)N6CN7C(=O)N8CN9C(=O)N%10CN%11C(=O)N%12CN1C1C2N2CN%13C(=O)N(CN%14C(=O)N(CN%15C(=O)N(CN%16C(=O)N(CN%17C(=O)N(CN1C2=O)C%12C%11%17)C%10C9%16)C8C7%15)C6C5%14)C4C3%13 (stereo not shown) [cucurbit[6]uril]
- water solubility [2]: 18 µg/mL (≈ 18.1 µM)

Compound: O=C1N2CN3C(=O)N4CN5C(=O)N6CN7C(=O)N8CN9C(=O)N%10CN%11C(=O)N%12CN%13C(=O)N%14CN%15C(=O)N%16CN1C1C2N2CN%17C(=O)N(CN%18C(=O)N(CN%19C(=O)N(CN%20C(=O)N(CN%21C(=O)N(CN%22C(=O)N(CN%23C(=O)N(CN1C2=O)C%16C%15%23)C%14C%13%22)C%12C%11%21)C%10C9%20)C8C7%19)C6C5%18)C4C3%17 (stereo not shown) [cucurbit[8]uril]
- water solubility [2]: 17 µg/mL (≈ 12.8 µM)

Compound: Alkylbenzene sulfonate
- Appearance [1, 5]: very turbid

Compound: C12/14 alkyl ethoxylate with 8 EO
- Appearance [1, 5]: very turbid

Compound: Sodium laureth sulfate
- Appearance [1, 5]: very turbid

Compound: lauramine oxide [Genaminox LA]
- Appearance [1, 5]: clear
- Relative peak area 2,3-butadione [3, 6]: 11
- Relative peak area hexanal [3, 6]: 9
- Relative peak area isovaleraldehyde [3, 6]: 6
- Relative peak area isovaleric acid [3, 6]: 3
- Relative peak area octanal [3, 6]: 73
- Relative peak area 2,3-butadione [3, 7]: 181
- Relative peak area hexanal [3, 7]: 203
- Relative peak area isovaleraldehyde [3, 7]: 182
- Relative peak area isovaleric acid [3, 7]: 10
- Relative peak area octanal [3, 7]: 134
